Active and inactive are the calls of the source.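 How the source made its calls: active means compounds giving half or more protection of infected cells from virus-caused growth loss, again on retest; inactive means the rest.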
System: CEM cells HIV-1 protection, formazan growth assay
Assay: NCI AIDS Antiviral Assay
Conditions: for IC50: measured here: growth of uninfected CEM cells
Procedure, shortened: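 CEM (human) cells, HIV-1 infected vs uninfected, 5-point dosing, formazan growth read-out. Retest threshold 50% protection.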

| Compound | EC50 [µM] | IC50 [µM] | outcome |
| --- | --- | --- | --- |
| C#CCOCn1cnc2ncnc(N)c21 | > 1230 | > 1230 | – |
| Cc1ccc(NC(=O)/C(Cl)=C(/Cl)C(=O)O)cc1 | – | – | inactive |
| Cc1cc(O)c(/C=N/C(=S)NCCc2ccccc2)c(=O)o1 | > 200 | > 200 | – |
| C=CO/N=[N+](\[O-])N(CC)CC | > 200 | > 200 | – |
| N#Cc1c(C#N)c(-c2ccccc2)n(Cc2ccccc2)c1N | > 200 | > 200 | – |
| O=S1(=O)CC(c2ccccc2)=NN=C(c2ccccc2)C1 | > 61.7 | > 61.7 | – |
| CO/N=C\c1ccc2c(c1)Sc1ccccc1O2 | > 200 | > 200 | – |
| CC(C)c1ccc2c(c1)CCC1C2(C)CCCC1(C)C(O)c1ccccc1 (stereo not drawn) | > 200 | 38 | – |
| COc1ccc(-c2cc(-c3ccco3)c(C#N)c(=S)n2C2OC(CO)C(O)C(O)C2O)cc1 (stereo not drawn) | 37.2 | > 200 | – |
| CCOP(=O)(OCC)/C(C#N)=C/c1nc[nH]c1C | > 200 | > 200 | – |
| O=C(NNc1ccnc2cc(Cl)ccc12)/C(=C/c1ccc2c(c1)OCO2)NC(=O)c1ccccc1 | > 100 | 8.51 | – |
| Cc1n[nH]c(=O)c2cc3oc4ccccc4c3n12 | > 107 | 32.4 | – |
| O=C1/C(=C/c2ccco2)N=C2Sc3c(nc[nH]c3=O)N12 | > 200 | > 200 | – |
| Cc1ccc(C(=O)Oc2ccc(/C=C3\CCC/C(=C\c4ccc(OC(=O)c5ccc(C)cc5)cc4)C3=O)cc2)cc1 | > 100 | > 100 | – |
| CSc1nc(=S)[nH]c2c1c(C)nn2-c1ccccc1 | > 200 | 28.8 | – |
| COc1cc(OCc2ccc3nc(OC)c(OC)nc3c2)cc(OC)c1OC | > 200 | > 200 | – |
| C=C1C(=O)O[C@H]2C[C@@]3(COC(C)=O)C=COC=C(COC(=O)C(C)C)C3CC12 (stereo partly drawn) | > 200 | 30.9 | – |
| O=C1CSC(=Nc2ccccc2F)N1c1ccccc1F | > 107 | > 107 | – |
| CC(=O)N(c1ccccc1)[Si](C)(C)C | – | – | inactive |
| OCC(O)C(O)c1nn(-c2ccccc2)c2nc3cc(Cl)c(Cl)cc3nc12 (stereo not drawn) | – | – | inactive |
| CCCCCCCCCCCCN(O)C(=O)c1ccccc1 | > 17 | > 17 | – |
| c1csc(-c2ccsc2-c2ccsc2)c1 | > 200 | 87.1 | – |
| CC(C(C(=O)O)S(=O)(=O)O)C(C(=O)O)S(=O)(=O)O (stereo not drawn) | > 100 | 20.4 | – |

| Compound | EC50 [µM] | IC50 [µM] | outcome |
| --- | --- | --- | --- |
| COc1cc(Oc2nc3ccccc3nc2C(=O)O)cc(OC)c1OC | > 200 | > 200 | – |
| N#Cc1cnc(N)nc1NCC1(CO)CC(CCc2ccccc2)C1 (stereo not drawn) | > 200 | 7.24 | – |
| O=C1NC(O)c2cc(Cl)cc(Cl)c2O1 (stereo not drawn) | – | – | inactive |
| Cc1ccc(C2=C(c3ccccc3)C(Br)(c3ccc(C)cc3)C(c3ccccc3)=C2c2ccc(C)cc2)cc1 | > 2.51 | > 2.51 | – |
| CN1CCCC(C(=O)O)(c2ccccc2)CC1 (stereo not drawn) | – | – | inactive |
| COc1cccc(-c2nc(-c3cnccn3)n(C3OC(CO)C(O)C3O)n2)c1 (stereo not drawn) | > 200 | > 200 | – |
| Nc1ncnc2oc(-c3cccs3)nc12 | > 200 | > 200 | – |
| O=C(C[P+](c1ccccc1)(c1ccccc1)c1ccccc1)c1ccc([N+](=O)[O-])cc1 | > 200 | 19.1 | – |
| NC(CCc1nc(-c2cccc([N+](=O)[O-])c2)cs1)C(=O)O (stereo not drawn) | – | – | inactive |
| CCCCCCCCCCCC(=O)c1c(O)c2ccccc2oc1=O | > 200 | 155 | – |
| O=C(CO)C1CC2C=CC1C2 (stereo not drawn) | – | – | inactive |
| Cc1ccc(NC(=O)c2cc3ccccc3c(N=Nc3cc(S(=O)(=O)O)ccc3O)c2O)c(C)c1 | 0.832 | 4.27 | – |
| Cc1cc(C)c2c(c1)CC1(Cc3cc(C)c(C)cc3C1=O)C2=O (stereo not drawn) | > 100 | > 100 | – |
| CC(=O)Nc1cc2cc(NC(=O)C(Cl)(Cl)Cl)ccc2oc1=O | > 81.3 | > 81.3 | – |
| c1ccc(N=c2nc(Nc3ccccc3)ss2)cc1 | > 200 | 30.9 | – |
| CCCn1c(=O)c2nn3c(=O)n(CCC)c(=O)c3nn2c1=O | > 200 | > 200 | – |
| O=S1(=O)OCCOS(=O)(=O)C1C1c2ccccc2-c2ccccc21 | > 200 | 30.9 | – |
| ON/N=C/c1cc2c(cc1Br)OCO2 | > 263 | 186 | – |
| CC(C)N1CN(c2ccccc2)C2(CCN(CCCC(=O)c3ccc(F)cc3)CC2)C1=O | > 200 | 5.75 | – |
| O=[N+]([O-])c1nccn1CCC[n+]1ccc2ccccc2c1 | > 100 | 74.1 | – |
| O=C(O)CCSSCCC(=O)O | > 200 | > 200 | – |
| CCOC(=O)CC[P+](c1ccccc1)(c1ccccc1)c1ccccc1 | > 200 | 21.4 | – |
| COc1ccc(-c2ccccc2)cc1S | > 200 | > 200 | – |

| Compound | EC50 [µM] | IC50 [µM] | outcome |
| --- | --- | --- | --- |
| Fc1ccccc1C1CC(C(c2ccccc2)c2ccccc2)=Nc2ccccc2S1 (stereo not drawn) | > 6.46 | > 6.46 | – |
| CC(C)Cn1cnc2c(NCC(C)O)nc3ccccc3c21 (stereo not drawn) | > 200 | 87.1 | – |
| CC(=O)Oc1cc(OC(C)=O)c2c(=O)c(OC(C)=O)c(-c3ccc(OC(C)=O)c(OC(C)=O)c3)oc2c1 | > 200 | 9.33 | – |
| CCCCCCCCCCCCOC(=N)N1CCOCC1 | > 91.2 | 4.47 | – |
| NC(N)=NCCCC(NC(=O)OCCCCn1ccc(N)nc1=O)C(=O)O (stereo not drawn) | > 200 | > 200 | – |
| COc1cc2c(cc1OC)C(Cl)C(c1ccc(Cl)cc1)=C2Cl (stereo not drawn) | – | – | inactive |
| O=C1c2ccccc2-n2c1nc1ccccc1c2=O | > 200 | 52.5 | – |
| O=C1N=C(C=c2ccc(=Cc3[nH]c(=O)[nH]c3O)cc2)C(=O)N1 | 132 | > 200 | – |
| CC[C@@]1(C[C@H]2C[C@@]3(C(=O)OC)c4[nH]c5ccccc5c4CCN3C2=O)COC2(CCCCC2)O1 | > 200 | 35.5 | – |
| Cc1cc([N+](=O)[O-])c(C)c2c1[nH]c1ccc(Cl)cc12 | > 10 | > 10 | – |
| CSC1=C(C(=O)Nc2ccc(C)cc2)C(N)=NC1=O | > 100 | > 100 | – |
| COc1ccc(N=c2ssc3c(=S)ssc23)cc1 | – | – | inactive |
| CC(=O)NCCSSCCCCSSCCNC(C)=O | > 200 | 95.5 | – |
| CC(C(=O)O)[S+]1CCOCC1 (stereo not drawn) | 0.0631 | > 200 | – |
| C=C(Br)CNCC(=C)Br | > 200 | 129 | – |
| CCCCC(C(=O)NCCNC(=O)CCC(=O)N(C)O)C(=O)NCCNC(=O)CCC(=O)N(C)O | > 200 | 112 | – |
| COC(=O)C1CCc2c1c(=O)n1c([nH]c3ccccc31)c2C#N (stereo not drawn) | > 40.7 | > 40.7 | – |
| CCCCNC(C)(C)C(SSSC(C)=O)c1ccco1 (stereo not drawn) | > 200 | 56.2 | – |
| O=C(O)C[C@H](Cl)[C@H](NC(=O)OCc1ccccc1)C(=O)O | – | – | inactive |
| COC1C(OC(=O)c2ccc(C)[nH]2)C(O)C(Oc2ccc3c(O)c(NC(=O)c4ccc(O)c(CC=C(C)C)c4)c(=O)oc3c2Cl)OC1(C)C (stereo not drawn) | > 200 | 15.8 | – |
| CC1=NC(=O)C(C)(c2ccccc2)N1CCc1ccccc1 (stereo not drawn) | > 200 | 45.7 | – |
| OC1(C2(O)CCC2)CCC1 | > 200 | > 200 | – |
| Brc1ccc(-c2ccc3nnnn3n2)s1 | > 200 | > 200 | – |

Source: PubChem BioAssay AID179 (DTP/NCI, 2004)
